# ChEMBL document CHEMBL1811812, “Identification of a novel selective H1-antihistamine with optimized pharmacokinetic properties for clinical evaluation in the treatment of insomnia” (Bioorg Med Chem Lett, 2010)
# The source made the active and inactive calls. No cut-off for these calls is given here.
# Tests used:
# [1] = Elimination half life in human at 50 mg by RIA; type: ADME, organism-based; settings: in vivo, read-out: beta t1/2 (converted)
# Homo sapiens [2] = species: Homo sapiens; test: Toxicity in human assessed as residual effect at 1 mg to 3 mg; type: organism-based; settings: in vivo
# Homo sapiens [3] = species: Homo sapiens; test: Antiinsomnic activity in human assessed as duration of sleep maintenance at 1 mg; type: functional
# Homo sapiens [4] = species: Homo sapiens; test: Antiinsomnic activity in human assessed as duration of sleep maintenance at 1 mg after 8 hrs; type: functional, organism-based
# Homo sapiens [5] = species: Homo sapiens; test: Selectivity for histamine H1 receptor over histamine H2 receptor in human conjuctival mast cells
# [6] = Clearance in EEG/EMG rat model; settings: in vivo
# [7] = Dissociation constant, pKa of the compound
# [8] = AUC (0 to t) in human at […], po; type: ADME, organism-based; parameters: route oral; settings: plasma
# [9] = Systemic clearance in human at […]; type: ADME, organism-based; settings: in vivo
# [10] = Half life in human at […], po; type: ADME, organism-based; parameters: route oral; settings: in vivo
# [11] = Plasma concentration in human at […] after 1 hr; type: ADME, organism-based
# Rattus norvegicus [12] = test: Effect on sleep-awake cycle in EEG/EMG rat model assessed as increase in non rapid eye movement sleep at 30 mg/kg measured up to 4 hrs relative to control; type: functional
# Rattus norvegicus [13] = test: Effect on sleep-awake cycle in EEG/EMG rat model assessed as latency to 1 min NREM sleep at 30 mg/kg measured up to 4 hrs relative to control; type: functional
# Cytochrome P450 3A4 = Cytochrome P450 3A4 (Homo sapiens, UniProt P08684)
# clinical [14] = settings: human, plasma, 0.1 mg/kg
# Description: AUC (0 to t) in human at 0.1 mg/kg
# clinical [15] = settings: human, in vivo, po, 0.1 mg/kg
# Description: Half life in human at 0.1 mg/kg, po and iv administered as single dose
# Rattus norvegicus [16] = test: Effect on sleep-awake cycle in EEG/EMG rat model assessed as increase in non rapid eye movement sleep at 3 mg/kg measured up to 4 hrs relative to control; type: functional
# Rattus norvegicus [17] = test: Effect on sleep-awake cycle in EEG/EMG rat model assessed as latency to 1 min NREM sleep at 3 mg/kg measured up to 4 hrs relative to control; type: functional
# [18] = Inhibition of H2 receptor
# Rattus norvegicus [19] = test: Effect on sleep-awake cycle in EEG/EMG rat model assessed as increase in non rapid eye movement sleep at 60 mg/kg measured up to 4 hrs relative to control; type: functional
# Rattus norvegicus [20] = test: Effect on sleep-awake cycle in EEG/EMG rat model assessed as latency to 1 min NREM sleep at 60 mg/kg measured up to 4 hrs relative to control; type: functional
# Chain of Cytochrome P450 3A4 (P08684 whole entry): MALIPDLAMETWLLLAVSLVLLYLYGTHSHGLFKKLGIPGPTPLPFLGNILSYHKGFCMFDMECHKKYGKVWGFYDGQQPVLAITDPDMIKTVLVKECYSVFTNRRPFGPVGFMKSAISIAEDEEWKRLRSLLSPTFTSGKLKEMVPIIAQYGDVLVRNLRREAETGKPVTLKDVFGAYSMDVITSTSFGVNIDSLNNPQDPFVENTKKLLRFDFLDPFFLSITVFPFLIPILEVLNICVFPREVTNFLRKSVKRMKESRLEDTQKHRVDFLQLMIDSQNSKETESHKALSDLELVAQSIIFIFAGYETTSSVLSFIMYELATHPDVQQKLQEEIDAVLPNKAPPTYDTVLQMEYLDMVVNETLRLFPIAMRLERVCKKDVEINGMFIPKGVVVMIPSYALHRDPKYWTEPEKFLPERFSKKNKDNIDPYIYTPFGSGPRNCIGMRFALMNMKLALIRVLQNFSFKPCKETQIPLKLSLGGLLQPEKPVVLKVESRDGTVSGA
smiles,measurement,setting,value
CN(C)CCC=C1c2ccccc2COc2ccccc21 [DOXEPIN],half-life,[1],18 h
same,Activity,Homo sapiens [2],Non-toxic
same,Time,Homo sapiens [3],8 h
same,Activity,Homo sapiens [4],inactive
C[C@H](C1=C(CCN(C)C)Cc2ccccc21)c1ccccn1,Selectivity ratio,Homo sapiens [5],100
C[C@@H](c1ccccn1)c1c(CCN(C)C)sc2ccccc12,clearance,[6],> 68 mL/min/kg
same,pKa,[7],8.5
same,AUC(0-t),[8],1.9 ng·h/mL
same,clearance,[9],3.8 mL/min/kg
same,half-life,[10],3.6 h
same,concentration at 1 h,[11],4 ng/mL
same,Activity,Rattus norvegicus [12],142%
same,Activity,Rattus norvegicus [13],124%
same,IC50,Cytochrome P450 3A4,> 10000 nM
same,AUC(0-t),clinical [14],2.8 ng·h/mL
same,half-life,clinical [15],6.8 h
CN(C)CCC1=C(Cc2cccnn2)c2ccc(F)cc2C1,Activity,Rattus norvegicus [16],136%
same,Activity,Rattus norvegicus [17],106%
COc1nccnc1[C@H](C)C1=C(CCN(C)C)Cc2cc(F)ccc21,Ki,[18],4.5 nM
Cc1ccc(-c2nc3ccc(C)cn3c2CC(=O)N(C)C)cc1 [ZOLPIDEM],Activity,Rattus norvegicus [12],205%
same,Activity,Rattus norvegicus [13],17%
C[C@H](C1=C(CCN(C)C)Cc2ccccc21)c1cnccn1,Activity,Rattus norvegicus [19],145%
same,Activity,Rattus norvegicus [20],109%
